The record followed here is ChEMBL document CHEMBL5143590, “Dihydropyrimidinone imidazoles as unique structural antibacterial agents for drug-resistant gram-negative pathogens” (Eur J Med Chem, 2022).

SMILES strings stand for the structures. Values after ≈ are worked out from the molar mass of the structure shown.

Common to all, as to format: functional
For assay [1], the system named is Staphylococcus aureus. The experiment in a line: Antibacterial activity against methicillin-resistant Staphylococcus aureus N315 assessed as inhibition of bacterial growth by two fold serial dilution method.
For assay [2], the system named is Enterococcus faecalis. In words: Antibacterial activity against Enterococcus faecalis assessed as inhibition of bacterial growth by two fold serial dilution method.
Assay [3] relates to Staphylococcus aureus. In words: Antibacterial activity against Staphylococcus aureus assessed as inhibition of bacterial growth by two fold serial dilution method.
Assay [4] concerns Staphylococcus aureus. The experiment in a line: Antibacterial activity against Staphylococcus aureus 25923 assessed as inhibition of bacterial growth by two fold serial dilution method.
Assay [5] deals with Staphylococcus aureus. In words: Antibacterial activity against Staphylococcus aureus 29213 assessed as inhibition of bacterial growth by two fold serial dilution method.
Assay [6] relates to Klebsiella pneumoniae. The experiment in a line: Antibacterial activity against Klebsiella pneumoniae assessed as inhibition of bacterial growth by two fold serial dilution method.
The test system of assay [7] is Escherichia coli. In words: Antibacterial activity against Escherichia coli assessed as inhibition of bacterial growth by two fold serial dilution method.
Assay [8] concerns Escherichia coli. In words: Antibacterial activity against Escherichia coli 25922 assessed as inhibition of bacterial growth by two fold serial dilution method.
Assay [9] deals with Pseudomonas aeruginosa. In words: Antibacterial activity against Pseudomonas aeruginosa assessed as inhibition of bacterial growth by two fold serial dilution method.
The test system of assay [10] is Pseudomonas aeruginosa. The experiment in a line: Antibacterial activity against Pseudomonas aeruginosa 27853 assessed as inhibition of bacterial growth by two fold serial dilution method.
The test system of assay [11] is Acinetobacter baumannii. In words: Antibacterial activity against Acinetobacter baumannii assessed as inhibition of bacterial growth by two fold serial dilution method.

Consider `CCCCc1nc(Cl)c(C2NC(=O)NC(C)=C2C(=O)OCC)n1Cc1cccc(Cl)c1` (centres undefined), for which the MIC in assay [1] was found to be 64 µg/mL (≈ 138 µM); in assay [2], 64 µg/mL (≈ 138 µM); in [3] it was 64 µg/mL (≈ 138 µM); in [4], 32 µg/mL (≈ 68.8 µM); in assay [5], 64 µg/mL (≈ 138 µM); in assay [6], 32 µg/mL (≈ 68.8 µM). The MIC worked out at 64 µg/mL (≈ 138 µM) in assay [7]; 32 µg/mL (≈ 68.8 µM) in assay [8]; 128 µg/mL (≈ 275 µM) in assay [9]; 64 µg/mL (≈ 138 µM) in assay [10]; 32 µg/mL (≈ 68.8 µM) in assay [11].

Take `CCCCc1nc(Cl)c(C2NC(=O)NC(C)=C2C(=O)OCC)n1S(=O)(=O)c1cccc(Br)c1` (centres undefined): the MIC in [1] was determined as 32 µg/mL (≈ 57.2 µM); in assay [2] it was 16 µg/mL (≈ 28.6 µM); in assay [3] it was 32 µg/mL (≈ 57.2 µM); in assay [4], 64 µg/mL (≈ 114 µM); in assay [5], 64 µg/mL (≈ 114 µM); in assay [6] it was 16 µg/mL (≈ 28.6 µM). Moreover, the MIC in assay [7] was 32 µg/mL (≈ 57.2 µM); in assay [8] it was 32 µg/mL (≈ 57.2 µM); in assay [9], 32 µg/mL (≈ 57.2 µM); in assay [10], 16 µg/mL (≈ 28.6 µM); in [11] it was 32 µg/mL (≈ 57.2 µM).

Regarding `C#CCn1c(CCCC)nc(Cl)c1C1NC(=O)NC(C)=C1C(=O)OCC` (centres undefined), the MIC is 64 µg/mL (≈ 169 µM) in [1]; 64 µg/mL (≈ 169 µM) in assay [2]; 64 µg/mL (≈ 169 µM) in assay [3]; 128 µg/mL (≈ 338 µM) in [4]; 64 µg/mL (≈ 169 µM) in assay [5]; 32 µg/mL (≈ 84.5 µM) in [6]. Also, the MIC was 128 µg/mL (≈ 338 µM) in assay [7]; 64 µg/mL (≈ 169 µM) in assay [8]; 64 µg/mL (≈ 169 µM) in [9]; 128 µg/mL (≈ 338 µM) in assay [10]; 64 µg/mL (≈ 169 µM) in assay [11].

Consider `CCCCc1nc(Cl)c(C2NC(=O)NC(C)=C2C(=O)OCC)n1S(=O)(=O)c1cccc(Cl)c1` (centres undefined), for which the MIC in assay [1] was 16 µg/mL (≈ 31 µM); in [2], 32 µg/mL (≈ 62.1 µM); in [3] it was 64 µg/mL (≈ 124 µM); in [4], 32 µg/mL (≈ 62.1 µM); in [5], 64 µg/mL (≈ 124 µM); in assay [6] it was 64 µg/mL (≈ 124 µM). For the same molecule, the MIC in assay [7] turned out to be 64 µg/mL (≈ 124 µM); in assay [8], 32 µg/mL (≈ 62.1 µM); in [9] it was 128 µg/mL (≈ 248 µM); in assay [10], 64 µg/mL (≈ 124 µM); in assay [11], 128 µg/mL (≈ 248 µM).

Turning to `CCCCc1nc(Cl)c(C2NC(=O)NC(C)=C2C(=O)OCC)n1CCN1CCOCC1` (centres undefined), the MIC in assay [1] is 64 µg/mL (≈ 141 µM); in assay [2], 128 µg/mL (≈ 282 µM); in assay [3], 32 µg/mL (≈ 70.5 µM); in [4] it was 128 µg/mL (≈ 282 µM); in assay [5] it was 128 µg/mL (≈ 282 µM); in [6], 64 µg/mL (≈ 141 µM). For the same molecule, the MIC was 128 µg/mL (≈ 282 µM) in [7]; 128 µg/mL (≈ 282 µM) in assay [8]; 256 µg/mL (≈ 564 µM) in assay [9]; 256 µg/mL (≈ 564 µM) in [10]; 128 µg/mL (≈ 282 µM) in assay [11].

In the case of `CCCCc1nc(Cl)c(C2NC(=O)NC(C)=C2C(=O)OCC)n1CCC` (centres undefined), the MIC was 64 µg/mL (≈ 167 µM) in [1]; 32 µg/mL (≈ 83.6 µM) in [2]; 16 µg/mL (≈ 41.8 µM) in [3]; 64 µg/mL (≈ 167 µM) in assay [4]; 128 µg/mL (≈ 334 µM) in assay [5]; 64 µg/mL (≈ 167 µM) in [6]. In addition, the MIC in [7] worked out at 64 µg/mL (≈ 167 µM); in assay [8], 32 µg/mL (≈ 83.6 µM); in [9], 32 µg/mL (≈ 83.6 µM); in assay [10] it was 64 µg/mL (≈ 167 µM); in assay [11] it was 64 µg/mL (≈ 167 µM).

With `CCCCc1nc(Cl)c(C2NC(=O)NC(C)=C2C(=O)OCC)n1S(=O)(=O)c1ccc(F)cc1` (centres undefined), the MIC in [1] is 16 µg/mL (≈ 32.1 µM); in assay [2], 64 µg/mL (≈ 128 µM); in [3] it was 64 µg/mL (≈ 128 µM); in [4] it was 64 µg/mL (≈ 128 µM); in assay [5], 32 µg/mL (≈ 64.1 µM); in [6], 128 µg/mL (≈ 257 µM). Also, the minimal inhibitory concentration (MIC) in assay [7] stood at 32 µg/mL (≈ 64.1 µM); in [8] it was 32 µg/mL (≈ 64.1 µM); in assay [9], 32 µg/mL (≈ 64.1 µM); in assay [10], 64 µg/mL (≈ 128 µM); in [11], 64 µg/mL (≈ 128 µM).

Consider `Cc1cc(NS(=O)(=O)c2ccc(N)cc2)no1` [SULFAMETHOXAZOLE], for which the MIC in assay [1] is 1 µg/mL (≈ 3.95 µM); in assay [2] it was 64 µg/mL (≈ 253 µM); in assay [3], 32 µg/mL (≈ 126 µM); in [4] it was 128 µg/mL (≈ 505 µM); in [5], 16 µg/mL (≈ 63.2 µM); in [6] it was 32 µg/mL (≈ 126 µM). The MIC was found to be 32 µg/mL (≈ 126 µM) in [7]; 8 µg/mL (≈ 31.6 µM) in [8]; 64 µg/mL (≈ 253 µM) in [9]; 32 µg/mL (≈ 126 µM) in assay [10]; 32 µg/mL (≈ 126 µM) in [11].

On to `CCCCc1nc(Cl)c(C2NC(=O)NC(C)=C2C(=O)OCC)n1S(=O)(=O)c1ccccc1` (centres undefined), for which the MIC in assay [1] is 128 µg/mL (≈ 266 µM); in assay [2], 64 µg/mL (≈ 133 µM); in assay [3] it was 64 µg/mL (≈ 133 µM); in [4], 128 µg/mL (≈ 266 µM); in [5], 256 µg/mL (≈ 532 µM); in assay [6] it was 128 µg/mL (≈ 266 µM). The MIC in assay [7] worked out at 64 µg/mL (≈ 133 µM); in assay [8], 128 µg/mL (≈ 266 µM); in assay [9] it was 64 µg/mL (≈ 133 µM); in assay [10] it was 64 µg/mL (≈ 133 µM); in assay [11], 64 µg/mL (≈ 133 µM).
